From US20260109732A1, “LIPID AMINES” (ModernaTX, Inc., priority 2021, published 2026) come the findings set out here.

Structures can show the parent of a compound that is named as a salt.

The nature of series [1]: Diameter and PDI from DLS measurements of mRNA nanoparticles with lipid amines. Type of series: physicochemical. A digest of the protocol:
(§1)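 Ionizable lipid nanoparticles (IL1:DSPC:cholesterol:PEG-DMG-2K) formed by vortex mixing at pH 4, loaded with luciferase or CFTR mRNA at N:P 4.93, neutralized with TRIS pH 8.12, then modified with lipid amine SA50 at pH 7.5. Particle diameter and PDI read by DLS; mRNA encapsulation by Ribogreen assay.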

Series [2] can be described thus: Encapsulation of mRNA nanoparticles with lipid amines using Ribogreen assay. The format is physicochemical. The procedure, abridged: as §1
Series [3] relates to HeLa cells. Briefly: Luciferase Protein Expression Assay in HeLa Cells. The format is cell-based, Human. The note with it: LNPs encapsulating Luciferase mRNA, 25 ng per well, N=4 wells; 5 h serum-free then 24 h; ONE-Glo. The procedure, abridged:
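HeLa cells received LNPs carrying luciferase mRNA (25 ng per well) or PBS in serum-free MEM for 5 h, then complete MEM for a further 24 h. Luciferase then read by ONE-Glo luminescence after lysis and reported as average RLU of 4 replicate wells.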

The test system of series [4] is HeLa cells. Briefly: CFTR Protein Expression Assay in HeLa Cells. Type of series: cell-based, Human. The note with it: LNPs encapsulating CFTR mRNA, N=4 wells; 5 h serum-free then 24 h; immunofluorescence vs PBS control. The procedure, abridged: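 HeLa cells dosed with CFTR mRNA LNPs (70 mM NaCl final buffer matrix) in serum-free MEM for 5 h, then complete MEM for 24 h. Fixed cells immunostained with anti-CFTR monoclonal and Alexa 488 secondary, imaged confocally; CFTR intensity per cell expressed as fold-change versus PBS buffer control, N=4 wells.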

Where [5] appears, read: CFTR mRNA nanoparticle with lipid amine.
Where [6] appears, read: Luciferase mRNA nanoparticle modified with lipid amine.

On to `CC(C)CCC[C@@H](C)[C@H]1CC[C@H]2[C@@H]3CC=C4C[C@@H](OC(=O)CN(CCCCCCCCN)C(=O)CCCCCN)CC[C@]4(C)[C@H]3CC[C@]12C` [SA123, (3S,8S,9S,10R,13R,14S,17R)-10,13-dimethyl-17-((R)-6-methylheptan-2-yl)-2,3,4,7,8,9,10,11,12,13,14,15,16,17-tetradecahydro-1H-cyclopenta[a]phenanthren-3-yl N-(6-aminohexanoyl)-N-(8-aminooctyl)glycinate dihydrochloride], for which the “Diameter (nm)” value in series [1] (setting [5]) came out at 83.2 nm; in series [1] (setting [6]), 73 nm. Besides, the PDI in series [1] (setting [5]) was found to be 0.12; in series [1] (setting [6]) it was 0.14. The “% Encapsulation (Ribogreen)” value in series [2] (setting [5]) is 99.0%; in series [2] (setting [6]), 99.5%. The “Average Relative Light Units ± Standard Deviation” value in the series on HeLa cells [3] is on record as 28520.5 ± 6429.4 Relative Light Units. Besides, the “Average fold-change in CFTR signal intensity per cell compared to buffer control ± standard deviation” value in the series on HeLa cells [4] was found to be 14.7 ± 1.0 fold-change.

In the case of `CC(C)CCC[C@@H](C)[C@H]1CC[C@H]2[C@@H]3CC=C4C[C@@H](OC(=O)N(CCCCNCCC5(N)CC5)CCC5(N)CC5)CC[C@]4(C)[C@H]3CC[C@]12C` [SA124, (3S,8S,9S,10R,13R,14S,17R)-10,13-dimethyl-17-((R)-6-methylheptan-2-yl)-2,3,4,7,8,9,10,11,12,13,14,15,16,17-tetradecahydro-1H-cyclopenta[a]phenanthren-3-yl (2-(1-aminocyclopropyl)ethyl)(4-((2-(1-aminocyclopropyl)ethyl)amino)butyl)carbamate trihydrochloride], the figures for the “Diameter (nm)” value in series [1] (setting [5]) and in series [1] (setting [6]) were 72.0 nm and 74 nm, respectively. The PDI in series [1] (setting [5]) worked out at 0.10; in series [1] (setting [6]), 0.14. Besides, the “% Encapsulation (Ribogreen)” value in series [2] (setting [5]) was determined as 98.3%; in series [2] (setting [6]) it was 99.8%. In the series with HeLa cells [3], the “Average Relative Light Units ± Standard Deviation” value worked out at 45805.9 ± 5630.6 Relative Light Units. Also, the “Average fold-change in CFTR signal intensity per cell compared to buffer control ± standard deviation” value with HeLa cells [4] turned out to be 15.0 ± 1.2 fold-change.

For `CC(C)CCC[C@@H](C)[C@H]1CC[C@H]2[C@@H]3CC=C4C[C@@H](OC(=O)CCCC(=O)N(CCCCNCCC(C)N)CCC(C)N)CC[C@]4(C)[C@H]3CC[C@]12C.Cl.Cl.Cl` (stereo partly drawn) [SA125, (3S,8S,9S,10R,13R,14S,17R)-10,13-dimethyl-17-((R)-6-methylheptan-2-yl)-2,3,4,7,8,9,10,11,12,13,14,15,16,17-tetradecahydro-1H-cyclopenta[a]phenanthren-3-yl 5-((3-aminobutyl)(4-((3-aminobutyl)amino)butyl)amino)-5-oxopentanoate trihydrochloride], the “Diameter (nm)” value in series [1] (setting [5]) was found to be 75.0 nm; in series [1] (setting [6]), 77 nm. For the same compound, the PDI in series [1] (setting [5]) was 0.15; in series [1] (setting [6]) it was 0.19. The “% Encapsulation (Ribogreen)” value in series [2] (setting [5]) was found to be 99.0%; in series [2] (setting [6]), 99.7%. For the same compound, the “Average Relative Light Units ± Standard Deviation” value in the series with HeLa cells [3] was 15625.8 ± 3399.4 Relative Light Units. For the same compound, the “Average fold-change in CFTR signal intensity per cell compared to buffer control ± standard deviation” value in the series with HeLa cells [4] turned out to be 14.2 ± 0.9 fold-change.

As to `CC(C)CCC[C@@H](C)[C@H]1CC[C@H]2[C@@H]3CC=C4C[C@@H](OC(=O)N(CCCCNC(C)CC(C)N)C(C)CC(C)N)CC[C@]4(C)[C@H]3CC[C@]12C.Cl.Cl.Cl` (stereo partly drawn) [SA126, (3S,8S,9S,10R,13R,14S,17R)-10,13-dimethyl-17-((R)-6-methylheptan-2-yl)-2,3,4,7,8,9,10,11,12,13,14,15,16,17-tetradecahydro-1H-cyclopenta[a]phenanthren-3-yl (4-aminopentan-2-yl)(4-((4-aminopentan-2-yl)amino)butyl)carbamate trihydrochloride], the figures for the “Diameter (nm)” value in series [1] (setting [5]) and in series [1] (setting [6]) were 79.3 nm and 75 nm, respectively. The figures for the PDI in series [1] (setting [5]) and in series [1] (setting [6]) were 0.15 and 0.18, respectively. The “% Encapsulation (Ribogreen)” value in series [2] (setting [5]) is reported as 99.4%; in series [2] (setting [6]), 99.7%. In the series on HeLa cells [3], the “Average Relative Light Units ± Standard Deviation” value turned out to be 31706.7 ± 7386.3 Relative Light Units. In the series with HeLa cells [4], the “Average fold-change in CFTR signal intensity per cell compared to buffer control ± standard deviation” value is listed as 18.2 ± 2.0 fold-change.

Regarding `CCC(N)CCNCCCCN(CCC(N)CC)C(=O)O[C@H]1CC[C@@]2(C)C(=CC[C@H]3[C@@H]4CC[C@H]([C@H](C)CCCC(C)C)[C@@]4(C)CC[C@@H]32)C1.Cl.Cl.Cl` (stereo partly drawn) [SA127, (3S,8S,9S,10R,13R,14S,17R)-10,13-dimethyl-17-((R)-6-methylheptan-2-yl)-2,3,4,7,8,9,10,11,12,13,14,15,16,17-tetradecahydro-1H-cyclopenta[a]phenanthren-3-yl (3-aminopentyl)(4-((3-aminopentyl)amino)butyl)carbamate trihydrochloride], the “Diameter (nm)” value in series [1] (setting [5]) is listed as 74.1 nm; in series [1] (setting [6]) it was 74 nm. Besides, the PDI in series [1] (setting [5]) is given as 0.12; in series [1] (setting [6]) it was 0.17. Besides, the “% Encapsulation (Ribogreen)” value in series [2] (setting [5]) is reported as 99.5%; in series [2] (setting [6]), 99.7%. The “Average Relative Light Units ± Standard Deviation” value with HeLa cells [3] amounted to 41246.9 ± 5672.4 Relative Light Units. The “Average fold-change in CFTR signal intensity per cell compared to buffer control ± standard deviation” value in the series on HeLa cells [4] came out at 20.1 ± 1.9 fold-change.

With `CC(C)CCC[C@@H](C)[C@H]1CC[C@H]2[C@@H]3CC=C4C[C@@H](OC(=O)N(CCCCNCC5(CN)CC5)CC5(CN)CC5)CC[C@]4(C)[C@H]3CC[C@]12C.Cl.Cl.Cl` [SA128, (3S,8S,9S,10R,13R,14S,17R)-10,13-dimethyl-17-((R)-6-methylheptan-2-yl)-2,3,4,7,8,9,10,11,12,13,14,15,16,17-tetradecahydro-1H-cyclopenta[a]phenanthren-3-yl ((1-(aminomethyl)cyclopropyl)methyl)(4-(((1-(aminomethyl)cyclopropyl)methyl)amino)butyl)carbamate trihydrochloride], the results for the “Diameter (nm)” value in series [1] (setting [5]) and in series [1] (setting [6]) were 74.5 nm and 75 nm, respectively. Also, the PDI amounted to 0.13 in series [1] (setting [5]) and 0.16 in series [1] (setting [6]). The “% Encapsulation (Ribogreen)” value in series [2] (setting [5]) and in series [2] (setting [6]) was 99.4% each time. Further, in the series on HeLa cells [3], the “Average Relative Light Units ± Standard Deviation” value is given as 39386.4 ± 5261.4 Relative Light Units. In addition, the “Average fold-change in CFTR signal intensity per cell compared to buffer control ± standard deviation” value in the series on HeLa cells [4] is 19.9 ± 0.4 fold-change.

For the compound `CC(C)CCC[C@@H](C)[C@H]1CC[C@H]2[C@@H]3CC=C4C[C@@H](OC(=O)CN(CCCCCCCCN)C(=O)[C@@H](N)CCCN)CC[C@]4(C)[C@H]3CC[C@]12C.Cl.Cl.Cl` [SA129, (3S,8S,9S,10R,13R,14S,17R)-10,13-dimethyl-17-((R)-6-methylheptan-2-yl)-2,3,4,7,8,9,10,11,12,13,14,15,16,17-tetradecahydro-1H-cyclopenta[a]phenanthren-3-yl N-(8-aminooctyl)-N-((S)-2,5-diaminopentanoyl)glycinate trihydrochloride], the “Diameter (nm)” value was 81.6 nm in series [1] (setting [5]) and 70 nm in series [1] (setting [6]). Also, the PDI is listed as 0.12 in series [1] (setting [5]) and 0.16 in series [1] (setting [6]). Moreover, the results for the “% Encapsulation (Ribogreen)” value in series [2] (setting [5]) and in series [2] (setting [6]) were 96.2% and 99.5%, respectively. Moreover, the “Average Relative Light Units ± Standard Deviation” value in the series on HeLa cells [3] stood at 144.8 ± 21.6 Relative Light Units. For the same compound, the “Average fold-change in CFTR signal intensity per cell compared to buffer control ± standard deviation” value in the series with HeLa cells [4] is reported as 1.0 ± 0 fold-change.
